Assay results: PubChem BioAssay AID330 (DTP/NCI, 2004)
Several values for one entry are separate records, joined by “and”; a condition that tells them apart may be missing. Equal entries are not always repeated. Toxic doses and inconclusive results are not listed. Rule for the calls: active = survival T/C of 150% or more; inactive = T/C below 125% in these data.

Tested on: P388 leukemia ip, CD2F1 mice, survival T/C
Experiment: NCI In Vivo Anticancer Drug Screen. Data for tumor model P388 Leukemia (intraperitoneal) in CD2F1 (CDF1) mice
Settings: endpoint: median survival time, higher = longer survival
Procedure, shortened: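 Mice carrying the transplanted tumor received test compound or vehicle. Survival was recorded in each group, and the value is the treated-group measurement divided by that of the vehicle-treated control group.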

[1] = dose: 50.0 mg/kg/injection, schedule: Q01DX005 (ip), vehicle: Klucel (hydroxypropylcellulose) (HPC)
[2] = dose: 100.0 mg/kg/injection, schedule: Q01DX005 (ip), vehicle: Klucel (hydroxypropylcellulose) (HPC)
[3] = dose: 200.0 mg/kg/injection, schedule: Q01DX005 (ip), vehicle: Klucel (hydroxypropylcellulose) (HPC)
[4] = dose: 100.0 mg/kg/injection, schedule: Q01DX009 (ip), vehicle: saline
[5] = dose: 200.0 mg/kg/injection, schedule: Q01DX009 (ip), vehicle: saline
[6] = dose: 400.0 mg/kg/injection, schedule: Q01DX009 (ip), vehicle: saline
[7] = dose: 25.0 mg/kg/injection, schedule: Q01DX005 (ip), vehicle: Klucel (hydroxypropylcellulose) (HPC)
[8] = dose: 25.0 mg/kg/injection, schedule: Q04DX003 (ip), vehicle: saline with Tween-80
[9] = dose: 50.0 mg/kg/injection, schedule: Q01DX009 (ip), vehicle: saline with Tween-80
[10] = dose: 50.0 mg/kg/injection, schedule: Q04DX003 (ip), vehicle: saline with Tween-80
[11] = dose: 100.0 mg/kg/injection, schedule: Q01DX009 (ip), vehicle: saline with Tween-80
[12] = dose: 60.0 mg/kg/injection, schedule: Q01DX005 (ip), vehicle: saline with Tween-80
[13] = dose: 120.0 mg/kg/injection, schedule: Q01DX005 (ip), vehicle: saline with Tween-80
[14] = dose: 240.0 mg/kg/injection, schedule: Q01DX005 (ip), vehicle: saline with Tween-80
[15] = dose: 100.0 mg/kg/injection, schedule: Q04DX003 (ip), vehicle: saline
[16] = dose: 200.0 mg/kg/injection, schedule: Q04DX003 (ip), vehicle: saline
[17] = dose: 400.0 mg/kg/injection, schedule: Q04DX003 (ip), vehicle: saline

Measured: T/C

CC1CN=C(c2ccc(NC(=O)NCCCCCCCCCNC(=O)Nc3ccc(C4=NCC(C)N4)cc3)cc2)N1 (centres undefined)
inactive: dose: 12.5 mg/kg/injection, schedule: Q01DX005 (ip), vehicle: saline + Tween-80 + alcohol 106 % of control and 110 % of control | dose: 25.0 mg/kg/injection, schedule: Q01DX005 (ip), vehicle: saline + Tween-80 + alcohol 105 % of control and 118 % of control | dose: 50.0 mg/kg/injection, schedule: Q01DX005 (ip), vehicle: saline + Tween-80 + alcohol 110 % of control and 121 % of control | dose: 100.0 mg/kg/injection, schedule: Q01DX005 (ip), vehicle: saline + Tween-80 + alcohol 108 % of control

O=C(O)CN1C(=O)c2cccc3cccc(c23)C1=O
inactive: dose: 50.0 mg/kg/injection, schedule: Q01DX009 (ip), vehicle: suspension in saline 101 % of control | dose: 100.0 mg/kg/injection, schedule: Q01DX009 (ip), vehicle: suspension in saline 102 % of control | dose: 200.0 mg/kg/injection, schedule: Q01DX009 (ip), vehicle: suspension in saline 100 % of control

O=c1c2ccccc2c(=O)n2n1C1C=CC2C1
inactive: [1] 107 % of control | [2] 105 % of control | [3] 100 % of control

CN1CCCN(C)C1c1ccccc1O
inactive: dose: 12.5 mg/kg/injection, schedule: Q01DX009 (ip), vehicle: saline sonified 100 % of control | dose: 25.0 mg/kg/injection, schedule: Q01DX009 (ip), vehicle: saline sonified 90 % of control | dose: 50.0 mg/kg/injection, schedule: Q01DX009 (ip), vehicle: saline sonified 100 % of control

COc1cc(CCN)ccc1O
inactive: [4] 104 % of control and 98 % of control | [5] 100 % of control and 102 % of control | [6] 100 % of control and 107 % of control | dose: 600.0 mg/kg/injection, schedule: Q01DX009 (ip), vehicle: saline 102 % of control and 114 % of control

COC1=CC(=O)C(O)=C/C1=C\C=C\c1ccccc1
inactive: dose: 2.5 mg/kg/injection, schedule: Q01DX009 (ip), vehicle: saline with Tween-80 107 % of control | dose: 5.0 mg/kg/injection, schedule: Q01DX009 (ip), vehicle: saline with Tween-80 104 % of control | dose: 10.0 mg/kg/injection, schedule: Q01DX009 (ip), vehicle: saline with Tween-80 110 % of control

C#CCC(C(C)=O)C(C)=O.[C-]#[O+].[C-]#[O+].[C-]#[O+].[C-]#[O+].[C-]#[O+].[C-]#[O+].[Co].[Co]
inactive: dose: 12.5 mg/kg/injection, schedule: Q01DX005 (ip), vehicle: Klucel (hydroxypropylcellulose) (HPC) 108 % of control | [7] 102 % of control | [1] 108 % of control and 95 % of control

CCCCCCCCCCCCCCCCCC1=NCCN1CCN
inactive: dose: 25.0 mg/kg/injection, schedule: Q01DX009 (ip), vehicle: saline with Tween-80 100 % of control | [8] 100 % of control | [9] 104 % of control | [10] 109 % of control | [11] 109 % of control | dose: 100.0 mg/kg/injection, schedule: Q04DX003 (ip), vehicle: saline with Tween-80 95 % of control

Cc1nc(N(C)C)[nH]c(=O)c1N=Nc1ccc(Cl)cc1
inactive: [1] 105 % of control | [2] 114 % of control | [3] 105 % of control

CCOc1ccc(N=Nc2c(O)n(-c3ccc(Br)cc3)c(=S)n(-c3ccccc3)c2=O)cc1
inactive: dose: 100.0 mg/kg/injection, schedule: Q01DX001 (ip), vehicle: saline with Tween-80 107 % of control | dose: 200.0 mg/kg/injection, schedule: Q01DX001 (ip), vehicle: saline with Tween-80 98 % of control | dose: 400.0 mg/kg/injection, schedule: Q01DX001 (ip), vehicle: saline with Tween-80 100 % of control

COc1ccccc1N1C(=O)C(=O)C(C(C)=O)C1=O (centres undefined)
inactive: dose: 50.0 mg/kg/injection, schedule: Q01DX009 (ip), vehicle: Klucel (hydroxypropylcellulose) (HPC) 107 % of control | dose: 100.0 mg/kg/injection, schedule: Q01DX009 (ip), vehicle: Klucel (hydroxypropylcellulose) (HPC) 106 % of control | dose: 200.0 mg/kg/injection, schedule: Q01DX009 (ip), vehicle: Klucel (hydroxypropylcellulose) (HPC) 108 % of control

COc1cccc(CCN2C(=O)CCC3=C2CCC3=O)c1
inactive: [7] 94 % of control | [1] 105 % of control | [2] 102 % of control | [3] 98 % of control

c1c2noc1CCCCCCCCC2
inactive: [1] 104 % of control | [2] 110 % of control | [3] 118 % of control

CCOC(=O)C1=C(C(=O)c2ccc(C)cc2)C(c2ccc(Cl)cc2Cl)C(C(=O)c2ccc(C)cc2)=C(C(=O)OCC)N1
inactive: [12] 89 % of control | [13] 98 % of control

N=C1C=CC2C(=Nc3ccccc3[N+]2=O)N1Cc1ccncc1 (centres undefined)
inactive: [12] 98 % of control | [13] 90 % of control | [14] 98 % of control

CCOC(=O)CC(C)P(c1ccccc1)C(C)CC(=O)OCC (centres undefined)
inactive: dose: 50.0 mg/kg/injection, schedule: Q01DX005 (ip), vehicle: saline with Tween-80 105 % of control | [12] 98 % of control | dose: 100.0 mg/kg/injection, schedule: Q01DX005 (ip), vehicle: saline with Tween-80 99 % of control | [13] 101 % of control | dose: 200.0 mg/kg/injection, schedule: Q01DX005 (ip), vehicle: saline with Tween-80 102 % of control | [14] 105 % of control

Cc1cc(C)c[n+](-c2nc3c([O-])n(C)c(=O)n(C)c-3n2)c1
inactive: [15] 94 % of control | [16] 98 % of control | [17] 103 % of control

CC(=O)C(=N/O)/C(C)=N/NC(=O)CC#N
inactive: dose: 100.0 mg/kg/injection, schedule: Q04DX009 (ip), vehicle: saline 101 % of control | dose: 200.0 mg/kg/injection, schedule: Q04DX009 (ip), vehicle: saline 100 % of control

CCCCCCCCCCCC(O)CCCCC (centres undefined)
inactive: dose: 100.0 mg/kg/injection, schedule: Q04DX003 (ip), vehicle: other 100 % of control | dose: 200.0 mg/kg/injection, schedule: Q04DX003 (ip), vehicle: other 100 % of control | dose: 400.0 mg/kg/injection, schedule: Q04DX003 (ip), vehicle: other 100 % of control

C=CCP1(C)=NP(OCC(F)(F)F)(OCC(F)(F)F)=NP(OCC(F)(F)F)(OCC(F)(F)F)=N1 (centres undefined)
inactive: [1] 99 % of control | [2] 101 % of control | [3] 92 % of control

C=C(COC(C)=O)[C@H](C)C(=O)C1OCOC(C2CC(=O)NC(=O)C2)[C@@H]1OC(C)=O (some centres undefined)
inactive: dose: 0.01 mg/kg/injection, schedule: Q01DX009 (ip), vehicle: distilled water + alcohol 102 % of control | dose: 0.03 mg/kg/injection, schedule: Q01DX009 (ip), vehicle: distilled water + alcohol 102 % of control | dose: 0.06 mg/kg/injection, schedule: Q01DX009 (ip), vehicle: distilled water + alcohol 102 % of control | dose: 0.12 mg/kg/injection, schedule: Q01DX009 (ip), vehicle: distilled water + alcohol 109 % of control

O=C1CCCN1C(=O)C1CC1
inactive: dose: 50.0 mg/kg/injection, schedule: Q01DX001 (ip), vehicle: saline 100 % of control | dose: 100.0 mg/kg/injection, schedule: Q01DX001 (ip), vehicle: saline 109 % of control | dose: 200.0 mg/kg/injection, schedule: Q01DX001 (ip), vehicle: saline 100 % of control

CCCOP(=O)(CCl)OCCC
inactive: [4] 90 % of control | [5] 95 % of control | [6] 109 % of control

CC1C2C=CC1C(c1c3ccc(=O)c(O)c-3oc3c(O)c(O)ccc13)C2C(=O)O (centres undefined)
inactive: [12] 94 % of control | [13] 87 % of control | [14] 91 % of control

CN(C)C(=O)NCCCCCCNC(=O)N(C)C
inactive: dose: 50.0 mg/kg/injection, schedule: Q01DX009 (ip), vehicle: saline 105 % of control | [4] 100 % of control | [5] 110 % of control

CCN(CC)CCCNC(C)=O
inactive: [15] 100 % of control | [16] 91 % of control | [17] 95 % of control

CC[n+]1c(/C=C/c2ccc(N(CCC(=O)O)CCC(=O)O)cc2)sc2ccccc21
inactive: dose: 12.5 mg/kg/injection, schedule: Q04DX003 (ip), vehicle: saline with Tween-80 99 % of control | [8] 100 % of control | [10] 101 % of control

COc1cc(C(=O)O)cc(C(=O)O)c1
inactive: dose: 6.25 mg/kg/injection, schedule: Q01DX009 (ip), vehicle: saline 99 % of control | dose: 12.5 mg/kg/injection, schedule: Q01DX009 (ip), vehicle: saline 107 % of control | dose: 25.0 mg/kg/injection, schedule: Q01DX009 (ip), vehicle: saline 100 % of control

Nc1n[nH]c(-c2ccccc2)n1
inactive: [9] 117 % of control | [11] 101 % of control
